Measured values published in patent US4522815A, “Anthracycline glycosides” (priority 1982, dated 1985).
Converted amounts (≈) assume the structure as drawn. Like-named read-outs stand apart in the source and are kept apart here.

Legend:
HeLa cells = assay: Colony inhibition test against HeLa cells in vitro (cloning efficiency), treatment for 24 hrs; format: cell-based; conditions: for IC50: HeLa colony inhibition; for activity at 0.0062 µg/mL: 6.2 ng/ml; for activity at 0.0125 µg/mL: 12.5 ng/ml; for activity at 0.025 µg/mL: 25 ng/ml; for times less cytotoxic than DNR: vs DNR; for activity at 0.0015 µg/mL: 1.5 ng/ml; for activity at 0.1 µg/mL: 100 ng/ml
[1] = test system: P388 leukemia cells sensitive to DX; assay: Cytotoxicity on doxorubicin-sensitive P388 leukemia cells in vitro, 48 hrs exposure; format: cell-based, mice; conditions: for IC50: Mus musculus, P388, dose giving 50% reduction of cell number vs untreated controls, 48 hrs, read-out: ID50 P388
Description: P388 and P388/DX leukemia cells were harvested from mice ascitic fluid and adapted to grow in suspension "in vitro".

[2] = test system: P388 leukemia cells resistant to DX (P388/DX); assay: Cytotoxicity on doxorubicin-resistant P388/DX leukemia cells in vitro, 48 hrs exposure; format: cell-based, mice; conditions: for IC50: Mus musculus, P388/DX, dose giving 50% reduction of cell number vs untreated controls, read-out: ID50 P388/DX; for R: Ratio between ID50 on P388/DX and ID50 on P388: Table 4
Protocol: Compounds Ib and Id were studied "in vitro" on HeLa and P388 leukemia cells sensitive (P388) and resistant (P388/DX) to DX and […].
Compound Ib was studied on P388/DX "in vitro".
P388 and P388/DX leukemia cells were harvested from mice ascitic fluid and adapted to grow in suspension "in vitro". Cytotoxicity tests were carried out exposing the cells to various drug concentrations for 48 hrs; at the end of the exposure period, cells were counted with a coulter cell counter, and the ID50 (dose which gives 50% reduction of the cell number in comparison with untreated controls) was calculated.
Effect on sensitive and doxorubicin-resistant P388
^a Dose giving 50% reduction of cell number in comparison with
^c P388 leukemia cells resistant to DX
^d Ratio between ID50 on P388/DX and ID50 on P388

ascitic P388 leukemia = assay: Antitumor activity against ascitic P388 leukemia in CDF-1 mice, treatment i.p. on day 1; format: in vivo
Protocol: (§1) The primary screening […] was carried out in CDF-1 mice bearing ascitic P388 leukemia (10^6 cells/mouse). Both IIa and IIc were suspended in 10%. Tween 80 and injected intraperitoneally.
(§2) Results of the primary screening "in vivo" carried out in CDF-1 mice bearing P388 ascitic leukemia and treated i.p. the day after tumor transplantation, are reported in Table 5.
(§3) Antitumor activity against ascitic P388 leukekemia.
(§4) Treatment i.p. on day 1.
(§5) ^a median survival time; % over untreated controls
(§6) ^b long term survivors (≥ 60 days)
(§7) ^c evaluated on the basis of autoptic findings on dead mice
(§8) ^d data of two experiments (range)
(§9) ^e date of three experiments (range)
(§10) Antitumor activity of Ib and Id against ascitic P388
as §4

Gross leukemia [3] = assay: Oral activity against i.v. transplanted Gross leukemia (i.v. comparators); format: in vivo, C3H/Me mice; conditions: for T/C %, median survival time / Toxic deaths: Table 7
Description: (§11) Results of studies performed in C3H/Me mice carrying i.v. transplanted Gross leukemia and treated i.v. the day after tumor transplantation, are reported in Table 6. […] The compounds Ib and Id were further investigated for oral activity on Gross leukemic transplanted i.v., in comparison with DNR, DX given i.v. and 4-dm DNR given oral route.
Oral activity of Ib and Id against Gross leukemia
^a days after transplantation
as §8

Gross leukemia [4] = assay: Antitumor activity against i.v. transplanted Gross leukemia in C3H/Me mice, treatment i.v. on day 1; format: in vivo; conditions: for T/C, median survival time; % over untreated controls / Toxic deaths: Table 6
Description: as §11
Antitumor activity against i.v. Gross leukemia.
Treatment i.v. on day 1.

[5] = Antitumor activity against ascitic P388 leukemia in CDF-1 mice, treatment i.p. on day 1; format: in vivo; conditions: mouse, in vivo, ip, CDF-1 mice; read-out: Maximal Tolerated Dose (Mx TD)
Protocol: as §1, §2, §3, §4, §5, §6, §7, §8, §9, §10, §4

[6] = Homo sapiens, HeLa, 24 h, read-out: No of colonies, % of untreated controls, Table 1, 24 hrs
[7] = Homo sapiens, HeLa, 24 h, read-out: No of colonies, % of untreated controls, Table 3, 24 hrs
[8] = Table 2, 4.4 mg/kg i.p. day 1, two experiments
[9] = Table 2, 6.6 mg/kg i.p. day 1, two (DNR) or three (DX) experiments
[10] = Table 5, 2.9 mg/kg i.p. day 1, two experiments
[11] = Table 5, 4.4 mg/kg i.p. day 1, DNR: two experiments
[12] = Homo sapiens, HeLa, Table 1, 24 hrs, read-out: No of colonies, % of untreated controls
[13] = Homo sapiens, HeLa, Table 3, 24 hrs, read-out: No of colonies, % of untreated controls

## COc1cccc2c1C(=O)c1c(O)c3c(c(O)c1C2=O)C[C@@](O)(C(C)=O)C[C@@H]3O[C@H]1C[C@H](N)[C@H](O)[C@H](C)O1 [DNR, daunorubicin, reference compound]
HeLa cells; Homo sapiens, HeLa, 24 h, read-out: ID50, Table 1, 24 hrs
  IC50: ~0.016 mg/L (≈ 0.0303 µM)
HeLa cells; Homo sapiens, HeLa, 24 h, read-out: ID50, Table 3, 24 hrs
  IC50: ~0.012 mg/L (≈ 0.0227 µM)
HeLa cells; [6]
  activity at 0.0062 µg/mL: 106%
  activity at 0.0125 µg/mL: 74%
  activity at 0.025 µg/mL: 12%
HeLa cells; [7]
  activity at 0.0062 µg/mL: 83%
  activity at 0.0125 µg/mL: 51%
  activity at 0.025 µg/mL: 9%
[1]
  IC50: 0.0017 mg/L (≈ 0.00322 µM)
[2]; 48 hrs
  IC50: 0.8 mg/L (≈ 1.52 µM)
[2]; P388/DX vs P388, 2880 min
  fold less active on the resistant than on the sensitive line: about 500 fold
[2]; 2880 min
  R: Ratio between ID50 on P388/DX and ID50 on P388: 470
Ascitic P388 leukemia; Table 2, 2.9 mg/kg i.p. day 1
  LTS, long term survivors (≥ 60 days): 0/10
  T/C, median survival time; % over untreated controls: 160%
  Toxic deaths (autoptic findings on dead mice): 0/10
Ascitic P388 leukemia; Table 2, 4.4 mg/kg i.p. day 1, data of two experiments (range)
  T/C, median survival time; % over untreated controls: 165-170%
Ascitic P388 leukemia; [8]
  LTS, long term survivors (≥ 60 days): 0/10
  Toxic deaths (autoptic findings on dead mice): 0/20
Ascitic P388 leukemia; Table 2, 6.6 mg/kg i.p. day 1, range of two (DNR) or three (DX) experiments
  T/C, median survival time; % over untreated controls: 150-160%
Ascitic P388 leukemia; [9]
  LTS, long term survivors (≥ 60 days): 0/10
  Toxic deaths (autoptic findings on dead mice): 7/20
Ascitic P388 leukemia; [10]
  LTS, long term survivors (≥ 60 days): 0/18
  Toxic deaths (autoptic findings on dead mice): 0/8
Ascitic P388 leukemia; Table 5, 2.9 mg/kg i.p. day 1, two experiments (range)
  T/C, median survival time; % over untreated controls: 159-194%
Ascitic P388 leukemia; [11]
  LTS, long term survivors (≥ 60 days): 0/18
  Toxic deaths (autoptic findings on dead mice): 7/18
Ascitic P388 leukemia; Table 5, 4.4 mg/kg i.p. day 1, DNR: two experiments (range)
  T/C, median survival time; % over untreated controls: 140-184%
Gross leukemia [3]; i.v. +1, 15 mg/kg
  T/C %, median survival time: 200%
  Toxic deaths: 0/10
Gross leukemia [3]; i.v. +1, 22.5 mg/kg
  T/C %, median survival time: 125%
  Toxic deaths: 6/10
Gross leukemia [4]; 15 mg/kg i.v. day 1
  T/C, median survival time; % over untreated controls: 171%
  Toxic deaths: 0/8
Gross leukemia [4]; 22.5 mg/kg i.v. day 1
  T/C, median survival time; % over untreated controls: 171%
  Toxic deaths: 0/8

## COc1cccc2c1C(=O)c1c(O)c3c(c(O)c1C2=O)C[C@@](O)(C(C)=O)C[C@@H]3O[C@H]1C=C[C@@H](O)[C@H](C)O1 [Compound IIa, 7-0-(2,3,6-trideoxy-α-L-erythro-hex-2-enopyranosyl)-daunomycinone]
HeLa cells; HeLa cells cloning efficiency
  times less cytotoxic than DNR: about 25 times
HeLa cells; [12]
  activity at 0.0015 µg/mL: 120%
  activity at 0.0062 µg/mL: 127%
  activity at 0.025 µg/mL: 143%
  activity at 0.1 µg/mL: 136%
HeLa cells; Homo sapiens, HeLa, Table 1, 400 ng/ml, 24 hrs, read-out: No of colonies, % of untreated controls
  activity at 0.4 µg/mL: 146%
HeLa cells; Homo sapiens, Table 1, 24 hrs, read-out: ID50 (the source's name)
  IC50: 0.4 mg/L (≈ 0.784 µM)
[5]
  MTD: 100 mg/kg
Ascitic P388 leukemia; Table 2, 75 mg/kg i.p. day 1
  LTS, long term survivors (≥ 60 days): 0/5
  T/C, median survival time; % over untreated controls: 120%
  Toxic deaths (autoptic findings on dead mice): 0/5
Ascitic P388 leukemia; Table 2, 100 mg/kg i.p. day 1
  LTS, long term survivors (≥ 60 days): 0/10
  T/C, median survival time; % over untreated controls: 90%
  Toxic deaths (autoptic findings on dead mice): 1/10
Ascitic P388 leukemia; ascitic P388, i.p.
  toxicity and potency vs parent drugs DNR and DX: less toxic and potent than the parent drugs DNR and DX
Ascitic P388 leukemia; i.p. day 1, IIa: two doses tested incl. Mx TD
  antitumor activity on P388 ascitic leukemia: inactive

## CC(=O)[C@]1(O)Cc2c(O)c3c(c(O)c2[C@@H](O[C@H]2C[C@H](O)[C@@H](O)[C@H](C)O2)C1)C(=O)c1ccccc1C3=O [Compound Ib, 4-demethoxy-7-0-(2,6-dideoxy-α-L-arabino-hexopyranosyl)-daunomycinone]
HeLa cells; HeLa cells cloning efficiency, vs 4-dm DNR
  times less cytotoxic than 4-dm DNR: 6 times
HeLa cells; HeLa cells cloning efficiency
  times less cytotoxic than DNR: 3 times
HeLa cells; [13]
  activity at 0.0015 µg/mL: 107%
  activity at 0.0062 µg/mL: 87%
  activity at 0.025 µg/mL: 67%
  activity at 0.1 µg/mL: 0%
HeLa cells; Homo sapiens, Table 3, 24 hrs, read-out: ID50 (the source's name)
  IC50: ~0.035 mg/L (≈ 0.0702 µM)
[1]
  IC50: 0.0012 mg/L (≈ 0.00241 µM)
[1]; vs DNR
  cytotoxicity on P388 leukemia cells: about as cytotoxic as DNR
[2]; 48 hrs
  activity on P388/DX leukemia cells: very active
  IC50: 0.03 mg/L (≈ 0.0602 µM)
[2]; 2880 min
  R: Ratio between ID50 on P388/DX and ID50 on P388: 25
Ascitic P388 leukemia; Table 5, 1.25 mg/kg i.p. day 1
  LTS, long term survivors (≥ 60 days): 0/8
  T/C, median survival time; % over untreated controls: 140%
  Toxic deaths (autoptic findings on dead mice): 0/8
Ascitic P388 leukemia; Table 5, 2.5 mg/kg i.p. day 1
  LTS, long term survivors (≥ 60 days): 0/9
  T/C, median survival time; % over untreated controls: 163%
  Toxic deaths (autoptic findings on dead mice): 3/9
Ascitic P388 leukemia; Table 5, 5 mg/kg i.p. day 1
  LTS, long term survivors (≥ 60 days): 0/10
  T/C, median survival time; % over untreated controls: 63%
  Toxic deaths (autoptic findings on dead mice): 10/10
Ascitic P388 leukemia; ascitic P388, i.p. day 1
  times less potent than 4-dm DNR: about 1.5 times
  times more potent than DNR: 2 times
Ascitic P388 leukemia; vs DNR and 4-dm DNR
  antileukemia activity, comparison at the Mx TD: less active than DNR and 4-dm DNR
Gross leukemia [3]; oral +1, 2.9 mg/kg
  T/C %, median survival time: 167%
  Toxic deaths: 0/10
Gross leukemia [3]; oral +1, 4.4 mg/kg
  T/C %, median survival time: 208%
  Toxic deaths: 0/10
Gross leukemia [3]; oral +1, 6.6 mg/kg
  T/C %, median survival time: 116%
  Toxic deaths: 4/9
Gross leukemia [3]; oral day 1, Gross leukemia, Id at the Mx TD vs DX i.v.
  antitumor activity given orally at day 1: good antitumor activity when given orally at day 1, comparable to that of 4-dm DNR
Gross leukemia [4]; Gross leukemia, i.v. day 1
  antitumor activity, comparison of the Mx TD: more active than DNR
  toxicity and potency vs parent compounds: more toxic and more potent than the parent compounds
Gross leukemia [4]; 2.9 mg/kg i.v. day 1
  T/C, median survival time; % over untreated controls: 214%
  Toxic deaths: 0/7
Gross leukemia [4]; 4.4 mg/kg i.v. day 1
  T/C, median survival time; % over untreated controls: 100%
  Toxic deaths: 7/8
